# Measurements: the supplement of paper PMC10307832
# How the values were obtained:
# Assay in all cases: relative viability (nuclei count vs DMSO), 5 days (fraction); higher = more cells survive
# Ibrutinib + Palbociclib = compound: C=CC(=O)N1CCC[C@@H](n2nc(-c3ccc(Oc4ccccc4)cc3)c3c(N)ncnc32)C1 [Ibrutinib] + CC(=O)c1c(C)c2cnc(Nc3ccc(N4CCNCC4)cn3)nc2n(C2CCCC2)c1=O [Palbociclib] (partner 0.5 µM)
# Summary of the method: (§1)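 Relative viability was taken as the ratio of nuclei in treated wells to nuclei in vehicle wells. Lung cancer cell lines in 1536-well plates received compounds by pin tool one day after seeding, either one drug alone or a fixed anchor-drug dose plus five library-drug doses (not always all listed) in √10 steps. Nuclei were counted on 4× images after 5 days of treatment, and values are medians of duplicate plates.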
# PAC-1 + OSI-027 = compound: C=CCc1cccc(/C=N/NC(=O)CN2CCN(Cc3ccccc3)CC2)c1O [PAC-1] + COc1cccc2cc(-c3nc([C@H]4CC[C@H](C(=O)O)CC4)n4ncnc(N)c34)[nH]c12 [OSI-027] (partner 0.5 µM)
# Summary of the method: as §1
# Ibrutinib + Vorinostat = compound: C=CC(=O)N1CCC[C@@H](n2nc(-c3ccc(Oc4ccccc4)cc3)c3c(N)ncnc32)C1 [Ibrutinib] + O=C(CCCCCCC(=O)Nc1ccccc1)NO [Vorinostat] (partner 1 µM)
# Summary of the method: as §1
# PAC-1 + Crizotinib = compound: C=CCc1cccc(/C=N/NC(=O)CN2CCN(Cc3ccccc3)CC2)c1O [PAC-1] + C[C@@H](Oc1cc(-c2cnn(C3CCNCC3)c2)cnc1N)c1c(Cl)ccc(F)c1Cl [Crizotinib] (partner 1 µM)
# Summary of the method: as §1
cell line,measurement,setting,value
SK-MES-1,relative viability,Ibrutinib + Palbociclib; first compound 0.005 µM,0.337
same,relative viability,Ibrutinib + Palbociclib; first compound 0.01581 µM,0.324
same,relative viability,Ibrutinib + Palbociclib; first compound 0.05 µM,0.382
same,relative viability,Ibrutinib + Palbociclib; first compound 0.1581 µM,0.366
same,relative viability,Ibrutinib + Palbociclib; first compound 0.5 µM,0.245
same,relative viability,PAC-1 + OSI-027; first compound 0.02 µM,0.651
same,relative viability,PAC-1 + OSI-027; first compound 0.06325 µM,0.636
same,relative viability,PAC-1 + OSI-027; first compound 0.2 µM,0.533
same,relative viability,PAC-1 + OSI-027; first compound 2 µM,0.645
same,relative viability,Ibrutinib + Vorinostat; first compound 0.005 µM,1.16
same,relative viability,Ibrutinib + Vorinostat; first compound 0.01581 µM,1.05
same,relative viability,Ibrutinib + Vorinostat; first compound 0.05 µM,1.07
same,relative viability,Ibrutinib + Vorinostat; first compound 0.1581 µM,1.26
same,relative viability,Ibrutinib + Vorinostat; first compound 0.5 µM,0.747
same,relative viability,PAC-1 + Crizotinib; first compound 0.02 µM,1.05
same,relative viability,PAC-1 + Crizotinib; first compound 0.06325 µM,1.01
same,relative viability,PAC-1 + Crizotinib; first compound 0.2 µM,1.01
same,relative viability,PAC-1 + Crizotinib; first compound 2 µM,1.01
